The subject of one experiment is RXFP1. The note with it: ref Bathgate et al., 2006; cited from earlier work. An excerpt:
The relaxin family of peptide hormones includes, besides relaxin (RLN2), also relaxin 3 (RLN3), insulin-like peptide 3 (INSL3), INSL5, and INSL6. Additionally, within higher primates and humans there is RLN1 and INSL4. […] RLN2 and INSL3 on the other hand are usually expressed in reproductive tissues of both sexes and ...

Another experiment deals with hRXFP1. Briefly: cAMP production, HEK 293T cells permanently transfected with hRXFP1. Format: cell-based, human. The note with it: hRXFP1, permanently transfected HEK 293T, 20 min stimulation, cAMP by TRFIA, three-parameter non-linear regression, pRLN converted to nM assuming MW 6 kD and purity 85%. The protocol: (§1) For transfection, the Neon electroporation system (Invitrogen) was used: the bRXFP1 or bRXFP2 expression plasmids were mixed with HEK 293T cells in a ratio of ~0.2 μg DNA/50,000 cells/well (48-well plate), and pulsed at 1,300 V for 30 ms to transfect the DNA into the cells. Plasmids were allowed to express for 24 h with the transfected cells cultured in DMEM/F12 (1:1) at 37°C with 5% CO2. In parallel, HEK 293T cells which had been permanently transfected with human RXFP1 or human RXFP2 (Heng et al., [2008]) were plated at 50,000 cells/well in a 48-well plate, and cultured overnight in DMEM/F12 (1:1) with 10% bovine fetal serum, 2 mM L-glutamine and 1% Penicillin-Streptomycin at 37°C with 5% CO2.
(§2) For the transient and permanently transfected HEK 293T cells and the primary myometrial (6,000 cells/well) and theca cells (20,000 cells/well), after the initial pre-culture period (as above) medium was changed and supplemented or not with 1 mM IBMX (3-isobutyl-1-methylxanthine; Sigma) as indicated (30 min for myometrial cells, 10 min for theca cells). Following this pre-incubation, cells were supplemented or not with various peptides, also as indicated in the figure legends, and incubation continued for a further 20 min. Total cAMP was extracted from the combined cells and culture medium from each well and measured by time-resolved fluorescent immunoassay (TRFIA) as described in Anand-Ivell et al. ([2007]). cAMP production by the transfected HEK 293 cells was measured directly (range1–243 pmol/ml); cAMP from primary myometrial and theca cells made use of the more sensitive TRFIA employing sample acetylation (detection range 0.04–9.72 pmol/ml).
(§3) All data were analyzed and plotted using GraphPad Prism 6. The EC50 values were calculated by non-linear regression of log (agonist) against response (three parameter). All column data were analyzed by ANOVA followed by Neuman-Keuls post-hoc test.

The next experiment deals with hRXFP2. Briefly: cAMP production, HEK 293T cells permanently transfected with hRXFP2. The note with it: for EC50: hRXFP2, permanently transfected HEK 293T, 20 min stimulation, cAMP by TRFIA, three-parameter non-linear regression, pRLN converted to nM assuming MW 6 kD and purity 85%, its curve had not reached an asymptote at highest concentration. Format: cell-based, human. The procedure: as §1, §2, §3
(Changes in cAMP serve as a functional read-out for many G protein-coupled receptors.)

A further experiment has as its system bRXFP1. Briefly: cAMP production, HEK293T cells transiently transfected with bRXFP1. The conditions noted are these: for EC50: bRXFP1, transient transfection HEK293T, 20 min stimulation, cAMP by TRFIA, three-parameter non-linear regression, pRLN converted to nM assuming MW 6 kD and purity 85%, bINSL3 curve had not reached an asymptote at highest concentration; for stimulation of cAMP production: bRXFP1, within the range of concentration applied (Figure 9A). Format: cell-based, bovine.
Excerpt: (§4) Preliminary studies, prior to the publication of the bovine genome project, had employed heterologous RT-PCR primers, derived from human sequence information, together with RNA from selected bovine tissues. Initial sequence information obtained was subsequently fully confirmed by the bovine genome project, which is used here for reference. Having confirmed by RT-PCR the correct sequences for the full-length functional bRXFP1 and bRXFP2 transcripts, expression constructs were generated, whereby the signal peptides of the two receptor sequences were replaced by the signal peptide-encoding sequence from the bovine prolactin gene, together with an intermediate short FLAG sequence, exactly as used previously for the expression of the human RXFP1 and RXFP2, and other G-protein coupled receptors (Hsu et al., [2000], [2002]). The two final bovine constructs were generated from assembled multiple oligonucleotides (custom gene synthesis by GeneArt, Regensburg, Germany), their sequences confirmed, and inserted into the vector pcDNA3.1/Zeo(+) (Invitrogen) for expression.
as §1, §2, §3

A further experiment has as its system bRXFP2. As to the kind of experiment: cAMP production, HEK293T cells transiently transfected with bRXFP2. The experiment is classed as cell-based, bovine. The note with it: for stimulation of cAMP production: bRXFP2 (Figure 9B, Table 1); for EC50: bRXFP2, transient transfection HEK293T, 20 min stimulation, cAMP by TRFIA, three-parameter non-linear regression, pRLN converted to nM assuming MW 6 kD and purity 85%.
Excerpt: as §4, §1, §2, §3

A further experiment relates to bovine sperm. The note with it: ref Miah et al., 2011; cited from earlier work. An excerpt: (§5) For many years there has been a controversy surrounding the existence or not of relaxin in ruminants, including cattle, sheep, and goats (Hartung et al., [1995]). A RLN2 homologous molecule is definitely expressed at the mRNA and/or protein levels in related ungulates, such as pigs, camels, llamas, and horses (James et al., [1977]; Stewart et al., [1991]; Bravo et al., [1996]; Hombach-Klonisch et al., [2000]; ncbi database: www-ncbi-nlm-nih-gov).

The subject of another experiment is bovine myometrial cells. As to the kind of experiment: cAMP production in primary bovine myometrial cells. Format: cell-based. The note with it: 20 min, 1 mM IBMX (Figure 8A). The protocol: Bovine tissues were obtained from the local slaughterhouse. Tissue collection was in accordance with German, British and European laws and provisions for ethical regulation. Cumulus-oocyte complexes (COCs) were collected and categorized exactly as in Janowski et al. ([2012]). For oocyte RNA preparation, COCs were mechanically denuded using a glass pipette followed by a 2 min trypsin incubation (1x Trypsin-EDTA solution; T4174; Sigma, Deisenhofen, Germany) to remove residual cumulus cells, then frozen at −80°C. Bovine myometrial cells were prepared from excised uteri exactly as in Heng et al. ([2008]). The isolated myometrial cells were plated at 6,000 cells/well in a 48-well plate and cultured at 37°C with 5% CO2 for 5 days before stimulation. Bovine ovaries without an obvious corpus luteum were selected for the isolation of granulosa and theca interna cells from mid-phase antral follicles (ca. 6–10 mm diameter) using standard procedures (Holtorf et al., [1989]; Bathgate et al., [1999]). Follicular fluid, including COCs and granulosa cells, was aspirated from the follicles, and collected in granulosa culture medium (DMEM/F-12 (1:1) with 1% bovine fetal serum, 1% antibiotic-antimycotic (ABAM), 2 mM L-glutamine). After manually removing the COCs, the granulosa cells were harvested by centrifugation (150 g, 10 min) and rinsed once with culture medium as above. Four to six millimeters follicles were obtained by dissection. The theca interna layer of mid-phase antral follicles was peeled off and digested with collagenase IV (1 mg/ml) in Medium 199, including trypsin inhibitor (100 μg/ml) at 38°C for 1 h. The isolated theca cells were collected and washed in Medium 199 with 1% ABAM. […]
as §2, with “Following this pre-incubation, cells were supplemented or not with various peptides, also as indicated in the figure legends, and incubation continued for a further 20 min.” left out
as §3

The test system of the next experiment is beef cows. The note with it: applied locally or systemically to beef cows at term; ref Musah et al., 1987; cited from earlier work.
Excerpt: as §5

The next experiment deals with bovine luteal cells. The conditions noted are these: bovine luteal cells in culture; ref Musah et al., 1990; cited from earlier work.
Excerpt: as §5

The next experiment deals with bovine theca cells. As to the kind of experiment: cAMP production in primary bovine theca cells. Format: cell-based. The note with it: 20 min, 1 mM IBMX (Figure 8B,C). The protocol:
Bovine tissues were obtained from the local slaughterhouse. Tissue collection was in accordance with German, British and European laws and provisions for ethical regulation. Cumulus-oocyte complexes (COCs) were collected and categorized exactly as in Janowski et al. ([2012]). For oocyte RNA preparation, COCs were mechanically denuded using a glass pipette followed by a 2 min trypsin incubation (1x Trypsin-EDTA solution; T4174; Sigma, Deisenhofen, Germany) to remove residual cumulus cells, then frozen at −80°C. Bovine myometrial cells were prepared from excised uteri exactly as in Heng et al. ([2008]). […]
as §2, with “Following this pre-incubation, cells were supplemented or not with various peptides, also as indicated in the figure legends, and incubation continued for a further 20 min.” left out, “pmol/ml). […]” for “pmol/ml).”

“Also recorded” adds a separate entry of the source. Bounds are passed on as bounds.

The values that follow come from publication PMC5459885, “Relaxin-Family Peptide Receptors 1 and 2 Are Fully Functional in the Bovine” (Frontiers in Physiology, 2017).

relaxin 3 [hRLN3]: in the experiment with RXFP1, the “affinity at RXFP1” value is given as “reduced affinity”. Further, the figures for the EC50 in the experiment with hRXFP1 and in the experiment on bRXFP1 were 14.6 nM and 97.9 nM, respectively. For the same molecule, the “stimulation of cAMP production” value with hRXFP2 (hRXFP2 (Table 1)) is “unable to stimulate”; in the experiment on bRXFP1 it was “showed any stimulation within the range of concentration applied”; with bRXFP2, “unable to stimulate”; with bRXFP2 (listed as RLN3), “but not RLN3, could stimulate at very high concentration”.
In the case of relaxin, the sperm functional parameters result in the experiment with bovine sperm is “significantly to affect bovine sperm functional parameters”. The cAMP production result with bovine myometrial cells is on record as “significant increase in cAMP”.
Take porcine relaxin [pRLN]: the “softening and dilatation response” value in the experiment with beef cows was “elicited a classic softening and dilatation response, thereby influencing calving period”. Besides, the oxytocin production result with bovine luteal cells was “significantly suppressed oxytocin production”. The EC50 (as a rule, the concentration at which the effect is half-maximal) with hRXFP1 was 0.4 nM; in the experiment on hRXFP1 (listed as porcine RLN) it was under 1 nM; in the experiment on hRXFP2 it was over 12 nM; in the experiment on bRXFP1, 10.8 nM; with bRXFP2, 10.5 nM. The “stimulation of cAMP production” value in the experiment on bRXFP1 was “showed any stimulation within the range of concentration applied”; in the experiment on bRXFP2, “could stimulate at very high concentration”. Besides, the cAMP production entry in the experiment with bovine myometrial cells is recorded as “significant stimulation was observed at all concentrations applied”.
Take recombinant human relaxin [rhRLN]: the EC50 in the experiment with hRXFP1 is 0.9 nM; with hRXFP1 (listed as human RLN), under 1 nM; with hRXFP2 it was 53.9 nM; with bRXFP1, 48.7 nM; in the experiment on bRXFP2, 27.3 nM. The results for the “stimulation of cAMP production” value in the experiment on bRXFP1 and in the experiment on bRXFP2 were “showed any stimulation within the range of concentration applied” and “could stimulate at very high concentration”, respectively.

B1: bovine INSL3 (protein, UniProt O77801 22-66; O77801 27-66; O77801 107-132, looked up)
Insulin-like 3 B' chain: GPAAAQEAPEKLCGHHFVRALVRLCGGPRWSSEEDGRPVAGGDRE
Insulin-like 3 B chain: QEAPEKLCGHHFVRALVRLCGGPRWSSEEDGRPVAGGDRE
Insulin-like 3 A chain: ATAINPARHCCLSGCTRQDLLTLCPH
notes: bovine insulin-like peptide 3, cognate ligand of bovine RXFP2
Turning to B1, the EC50 with hRXFP2 was 0.6 nM; in the experiment with bRXFP2 it was 0.7 nM; with bRXFP2 (listed as bovine INSL3), under 1 nM. For the same molecule, the “stimulation of cAMP production” value with bRXFP2 is “effective at low concentrations”. In addition, the cAMP production result with bovine myometrial cells (listed as INSL3) was “significant increase in cAMP”; with bovine myometrial cells (listed as bovine INSL3), “significant stimulation was observed at all concentrations applied”; in the experiment with bovine theca cells, “dose-dependent increase in cAMP; also recorded: able significantly to stimulate cAMP production in a dose-dependent manner”.

B2: human INSL3 (protein, UniProt P51460 21-55; P51460 106-131, looked up)
Insulin-like 3 B chain: LGPAPTPEMREKLCGHHFVRALVRVCGGPRWSTEA
Insulin-like 3 A chain: AAATNPARYCCLSGCTQQDLLTLCPY
notes: human insulin-like peptide 3
Turning to B2, the EC50 in the experiment with hRXFP2 stood at 0.7 nM; in the experiment with bRXFP2 it was 0.6 nM.
